Consider 4 compounds from US6127519A, “Calcitonin derivatives” (Tsumura & Co., priority 1990, dated 2000).

Bridge positions count the residues as written; N and C are the ends. Ends that are not written are not given here. Peptide text beside a SMILES is read from it.

For this assay, the system named is calcium concentration in the serum. The experiment in a line: Test 1: reduction of calcium level in serum after tail vein administration to rats. Type of assay: in vivo, rats of the Wistar strain. The following applies: 1 ml/kg tail vein, female Wistar rats. The protocol:
Six-weeks-old female rats of the Wistar strain (each group consisting of 4 rats) were used as the test animal, and the peptides of the present invention obtained in the examples given hereinafter were tested at concentrations adjusted with a 1% aqueous solution of sodium acetate (pH 4,0) to which 0.1% bovine serum albumin (BSA) was added. The solution was adjusted to a concentration of 166 μg/ml 830 ng/ml or 83 ng/ml and administered with the tail vein in an amount of 1 ml/kg. The back of the rat was fixed and blood was collected just before the administration, and at predetermined intervals after the administration, from the neck vein. The amount of blood collected each time was 0.3 ml. The sampled blood was subjected to centrifugal separation at 3500 rpm for 20 minutes to separate serum and the calcium content in the separated serum was measured by TBA-380 (supplied by Toshiba) using a Wako calcium-measuring kit (o-cpc method), and the ratio of reduction of the calcium concentration in the serum was determined.

[1] abbreviates: concentration 166 ng/ml, 0 hour (just before administration).
Where [2] appears, read: concentration 166 ng/ml, 1 hour.
The mark [3] stands for this setting: concentration 166 ng/ml, 2 hours.
Where [4] appears, read: concentration 166 ng/ml, 4 hours.
The mark [5] stands for this setting: concentration 166 ng/ml, 6 hours.
The mark [6] stands for this setting: concentration 83 ng/ml, 0 hour (just before administration).
Setting [7] is: concentration 83 ng/ml, 2 hours.
The mark [8] stands for this setting: concentration 83 ng/ml, 4 hours.
[9] abbreviates: concentration 83 ng/ml, 6 hours.
[10] abbreviates: concentration 830 ng/ml, 0 hour (just before administration).
[11] abbreviates: concentration 830 ng/ml, 1 hour.
Setting [12] is: concentration 830 ng/ml, 2 hours.
Setting [13] is: concentration 830 ng/ml, 4 hours.
The mark [14] stands for this setting: concentration 830 ng/ml, 6 hours.

With “AGNLSTAMLGKLSQELHKLYPQTAIGVGAP-NH2 [Peptide No. 16]”, the “Serum calcium level as percent of pre-dose baseline” value (“Serum calcium level as percent” below) is, setting by setting: under setting [1], 100.0%; under setting [2], 80.0%; under setting [3], 86.5%; under setting [4], 84.8%; under setting [5], 85.7%.

Turning to `CC[C@H](C)[C@H](NC(=O)[C@H](C)NC(=O)[C@@H](NC(=O)[C@H](CCC(N)=O)NC(=O)[C@@H]1CCCN1C(=O)[C@H](Cc1ccc(O)cc1)NC(=O)[C@@H](NC(=O)[C@H](CCC(N)=O)NC(=O)[C@H](CC(C)C)NC(=O)[C@H](CCCCN)NC(=O)[C@H](Cc1c[nH]cn1)NC(=O)[C@H](CC(C)C)NC(=O)[C@H](CCC(=O)O)NC(=O)[C@H](CCC(N)=O)NC(=O)[C@H](CO)NC(=O)[C@H](CC(C)C)NC(=O)[C@H](CCCCN)NC(=O)CNC(=O)[C@H](CC(C)C)NC(=O)CNC(=O)[C@@H]1CSSC[C@H](N)C(=O)NCC(=O)N[C@@H](CC(N)=O)C(=O)N[C@@H](CC(C)C)C(=O)N[C@@H](CO)C(=O)N[C@@H]([C@@H](C)O)C(=O)N1)[C@@H](C)O)[C@@H](C)O)C(=O)NCC(=O)N[C@H](C(=O)NCC(=O)N[C@@H](C)C(=O)N1CCC[C@H]1C(N)=O)C(C)C` [Peptide No. 9] (H-CGNLSTCGLGKLSQELHKLQTYPQTAIGVGAP-NH2; disulfide 1-7), the “Serum calcium level as percent” value was 100.0% under setting [6]; 81.0% (concentration 83 ng/ml, 1 hour); 87.5% under setting [7]; 84.0% under setting [8]; 83.2% under setting [9]; 100.0% under setting [10]. In addition, the “Serum calcium level as percent” value runs as follows: under setting [11], 72.8%; under setting [12], 78.4%; under setting [13], 86.8%; under setting [14], 82.4%.

As to `CC[C@H](C)[C@H](NC(=O)[C@H](C)NC(=O)[C@@H](NC(=O)[C@H](CCC(N)=O)NC(=O)[C@@H]1CCCN1C(=O)[C@H](Cc1ccc(O)cc1)NC(=O)[C@@H](NC(=O)[C@H](CCC(N)=O)NC(=O)[C@H](CC(C)C)NC(=O)[C@H](CCCCN)NC(=O)[C@H](Cc1c[nH]cn1)NC(=O)[C@H](CC(C)C)NC(=O)[C@H](CCC(=O)O)NC(=O)[C@H](CCC(N)=O)NC(=O)[C@H](CO)NC(=O)[C@H](CC(C)C)NC(=O)[C@H](CCCCN)NC(=O)CNC(=O)[C@H](CC(C)C)NC(=O)[C@H](CC(C)C)NC(=O)[C@@H]1CSSC[C@H](N)C(=O)NCC(=O)N[C@@H](CC(N)=O)C(=O)N[C@@H](CC(C)C)C(=O)N[C@@H](CO)C(=O)N[C@@H]([C@@H](C)O)C(=O)N1)[C@@H](C)O)[C@@H](C)O)C(=O)NCC(=O)N[C@H](C(=O)NCC(=O)N[C@@H](C)C(=O)N1CCC[C@H]1C(N)=O)C(C)C` [Peptide No. 13] (H-CGNLSTCLLGKLSQELHKLQTYPQTAIGVGAP-NH2; disulfide 1-7), the “Serum calcium level as percent” value under setting [6] came to 100.0%; the “Serum calcium level as percent” value (concentration 83 ng/ml, 1 hour) is given as 68.9%; the “Serum calcium level as percent” value under setting [7] is given as 70.5%; the “Serum calcium level as percent” value under setting [8] was determined as 84.4%; the “Serum calcium level as percent” value under setting [9] came to 86.8%; the “Serum calcium level as percent” value under setting [10] is 100.0%. In addition, the “Serum calcium level as percent” value was 71.3% under setting [11], 62.7% under setting [12], 58.3% under setting [13] and 61.8% under setting [14].

On to “AGNLSTAMLGKLSQELHKGQTYPQTAIGVGAP-NH2 [Peptide No. 17]”, for which the “Serum calcium level as percent” value was determined as 100.0% under setting [1]; 77.6% under setting [2]; 71.5% under setting [3]; 79.7% under setting [4]; 83.2% under setting [5].
